Experimental findings from ChEMBL document CHEMBL5465560, “Selectivity Literature for EUbOPEN Chemogenomic Library” (2024) are described below.

In test [1] the target is Calcium/calmodulin-dependent protein kinase type II subunit beta (Homo sapiens) (UniProt Q13554). Kind of test: Selectivity interaction (KinomeScan (DiscoverX)) EUB0000607a CAMK2B. To be noted: at 10 µM.
The target of test [2] is Tyrosine-protein kinase BTK (Homo sapiens, UniProt Q06187). Kind of test: Selectivity interaction (KinomeScan (DiscoverX)) EUB0000666a BTK. As to conditions: at 10 µM.
Test [3] concerns the target T1, Ephrin type-B receptor 4 (Homo sapiens) (UniProt P54760).
T1 sequence (whole entry): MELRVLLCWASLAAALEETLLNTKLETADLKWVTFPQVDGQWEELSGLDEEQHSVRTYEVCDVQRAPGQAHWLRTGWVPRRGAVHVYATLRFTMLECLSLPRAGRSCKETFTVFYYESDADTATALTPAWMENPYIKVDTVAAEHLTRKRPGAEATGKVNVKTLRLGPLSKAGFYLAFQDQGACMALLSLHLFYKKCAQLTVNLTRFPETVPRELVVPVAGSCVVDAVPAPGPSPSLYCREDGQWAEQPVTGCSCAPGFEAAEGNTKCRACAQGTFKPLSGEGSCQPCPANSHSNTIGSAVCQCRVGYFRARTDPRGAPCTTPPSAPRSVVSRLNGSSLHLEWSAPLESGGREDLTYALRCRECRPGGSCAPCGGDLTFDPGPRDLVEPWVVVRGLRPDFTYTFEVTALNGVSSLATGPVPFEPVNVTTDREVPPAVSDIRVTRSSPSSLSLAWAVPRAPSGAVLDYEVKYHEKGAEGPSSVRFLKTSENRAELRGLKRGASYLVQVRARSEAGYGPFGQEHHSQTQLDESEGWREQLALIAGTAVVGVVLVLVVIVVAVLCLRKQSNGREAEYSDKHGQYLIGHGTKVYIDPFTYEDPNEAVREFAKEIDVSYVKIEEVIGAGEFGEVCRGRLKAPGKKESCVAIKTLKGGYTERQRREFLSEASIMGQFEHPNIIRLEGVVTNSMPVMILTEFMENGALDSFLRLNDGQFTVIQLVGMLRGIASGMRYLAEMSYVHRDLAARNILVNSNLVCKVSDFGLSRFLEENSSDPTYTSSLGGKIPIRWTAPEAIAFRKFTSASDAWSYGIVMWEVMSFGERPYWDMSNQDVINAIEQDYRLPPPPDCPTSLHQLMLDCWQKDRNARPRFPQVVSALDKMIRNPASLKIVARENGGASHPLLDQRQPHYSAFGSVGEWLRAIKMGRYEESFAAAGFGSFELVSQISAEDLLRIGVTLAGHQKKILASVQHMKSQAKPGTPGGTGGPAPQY
Kind of test: Selectivity interaction (KinomeScan (DiscoverX)) EUB0000229b EPHB4. As to conditions: at 10 µM.

For test [4], the target named is Mitogen-activated protein kinase 6 (Homo sapiens) (UniProt Q16659). Put plainly: Selectivity interaction (KinomeScan (DiscoverX)) EUB0001079a MAPK6. As to conditions: at 1 µM.
For test [5], the target named is Receptor-type tyrosine-protein kinase FLT3 (Homo sapiens) (UniProt P36888). Kind of test: Selectivity interaction (KinomeScan (DiscoverX)) EUB0001079a FLT3. As to conditions: at 1 µM.
Test [6] deals with Hepatocyte growth factor receptor (Homo sapiens), P08581 [Y1235D]. Put plainly: (§1) Selectivity interaction (KinomeScan (DiscoverX)) EUB0001079a MET. As to conditions: at 1 µM.
For test [7], the system named is Hepatocyte growth factor receptor (Homo sapiens), P08581 [M1250T]. Described as §1. To be noted: at 1 µM.
Test [8] addresses Hepatocyte growth factor receptor (Homo sapiens, UniProt P08581). The description is as §1. To be noted: at 1 µM.
For test [9], the target named is Serine/threonine-protein kinase pim-3 (Homo sapiens) (UniProt Q86V86). Kind of test: Selectivity interaction (KinomeScan (DiscoverX)) EUB0001079a PIM3. To be noted: at 1 µM.
For test [10], the target named is T2, Serine/threonine-protein kinase 36 (Homo sapiens) (UniProt Q9NRP7).
T2 sequence (whole entry): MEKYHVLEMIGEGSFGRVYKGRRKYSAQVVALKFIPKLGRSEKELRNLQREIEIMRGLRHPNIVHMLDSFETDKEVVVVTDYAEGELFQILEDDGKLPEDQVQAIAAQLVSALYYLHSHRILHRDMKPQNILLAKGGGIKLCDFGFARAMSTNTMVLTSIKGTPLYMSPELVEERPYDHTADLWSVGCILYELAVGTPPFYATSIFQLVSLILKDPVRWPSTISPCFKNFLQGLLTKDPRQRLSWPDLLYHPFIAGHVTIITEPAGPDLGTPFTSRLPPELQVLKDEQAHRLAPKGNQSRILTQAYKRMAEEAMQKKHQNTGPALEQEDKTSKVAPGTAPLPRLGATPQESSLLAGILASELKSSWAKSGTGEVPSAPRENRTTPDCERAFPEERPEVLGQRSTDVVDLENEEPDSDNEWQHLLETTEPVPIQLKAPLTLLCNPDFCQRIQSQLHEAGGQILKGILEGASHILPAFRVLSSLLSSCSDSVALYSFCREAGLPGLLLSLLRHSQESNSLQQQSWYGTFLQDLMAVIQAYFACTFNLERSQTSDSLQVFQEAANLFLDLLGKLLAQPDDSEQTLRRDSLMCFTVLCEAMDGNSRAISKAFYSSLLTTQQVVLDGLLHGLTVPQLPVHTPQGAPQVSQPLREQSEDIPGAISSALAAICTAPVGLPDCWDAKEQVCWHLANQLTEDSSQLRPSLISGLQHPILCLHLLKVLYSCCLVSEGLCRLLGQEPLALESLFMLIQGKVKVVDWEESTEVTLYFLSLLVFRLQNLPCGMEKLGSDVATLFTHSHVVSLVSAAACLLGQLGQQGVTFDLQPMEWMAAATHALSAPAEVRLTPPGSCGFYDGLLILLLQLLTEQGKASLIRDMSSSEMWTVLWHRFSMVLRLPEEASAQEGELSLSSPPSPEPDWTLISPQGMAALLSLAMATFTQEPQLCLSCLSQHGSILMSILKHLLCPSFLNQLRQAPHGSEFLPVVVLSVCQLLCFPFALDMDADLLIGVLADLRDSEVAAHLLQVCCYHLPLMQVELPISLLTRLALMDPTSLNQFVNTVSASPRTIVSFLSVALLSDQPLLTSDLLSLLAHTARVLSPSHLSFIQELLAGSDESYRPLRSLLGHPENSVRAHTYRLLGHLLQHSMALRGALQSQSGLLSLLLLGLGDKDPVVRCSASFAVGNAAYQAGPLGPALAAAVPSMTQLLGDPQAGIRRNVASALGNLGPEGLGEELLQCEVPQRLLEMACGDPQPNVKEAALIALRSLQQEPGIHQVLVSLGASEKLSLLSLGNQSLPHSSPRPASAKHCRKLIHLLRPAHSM
As to conditions: at 10 µM.

The target of test [11] is Bone morphogenetic protein receptor type-1A (Homo sapiens, UniProt P36894). Kind of test: Selectivity interaction (KinomeScan (DiscoverX)) EUB0000045b BMPR1A.
Test [12] concerns the target Transient receptor potential cation channel subfamily M member 6 (Homo sapiens) (UniProt Q9BX84). Put plainly: Selectivity interaction (KinomeScan (DiscoverX)) EUB0000595a TRPM6. To be noted: at 10 µM.

Sequence of Bone morphogenetic protein receptor type-1A (P36894 whole entry): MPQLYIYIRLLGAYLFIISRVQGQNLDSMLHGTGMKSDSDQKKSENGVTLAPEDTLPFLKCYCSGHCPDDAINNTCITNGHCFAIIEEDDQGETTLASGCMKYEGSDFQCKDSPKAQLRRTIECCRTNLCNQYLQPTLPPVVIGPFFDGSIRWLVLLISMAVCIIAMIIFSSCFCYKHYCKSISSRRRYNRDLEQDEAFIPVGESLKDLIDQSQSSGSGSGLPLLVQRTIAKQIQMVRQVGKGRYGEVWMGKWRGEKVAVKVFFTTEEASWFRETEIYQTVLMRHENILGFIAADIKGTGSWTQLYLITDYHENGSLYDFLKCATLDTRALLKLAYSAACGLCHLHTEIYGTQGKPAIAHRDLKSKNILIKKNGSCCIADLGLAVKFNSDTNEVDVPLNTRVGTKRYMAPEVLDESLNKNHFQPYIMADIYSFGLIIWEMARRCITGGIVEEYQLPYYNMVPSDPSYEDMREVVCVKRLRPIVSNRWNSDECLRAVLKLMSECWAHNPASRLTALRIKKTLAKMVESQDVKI
Sequence of Calcium/calmodulin-dependent protein kinase type II subunit beta (Homo sapiens) (Q13554 whole entry): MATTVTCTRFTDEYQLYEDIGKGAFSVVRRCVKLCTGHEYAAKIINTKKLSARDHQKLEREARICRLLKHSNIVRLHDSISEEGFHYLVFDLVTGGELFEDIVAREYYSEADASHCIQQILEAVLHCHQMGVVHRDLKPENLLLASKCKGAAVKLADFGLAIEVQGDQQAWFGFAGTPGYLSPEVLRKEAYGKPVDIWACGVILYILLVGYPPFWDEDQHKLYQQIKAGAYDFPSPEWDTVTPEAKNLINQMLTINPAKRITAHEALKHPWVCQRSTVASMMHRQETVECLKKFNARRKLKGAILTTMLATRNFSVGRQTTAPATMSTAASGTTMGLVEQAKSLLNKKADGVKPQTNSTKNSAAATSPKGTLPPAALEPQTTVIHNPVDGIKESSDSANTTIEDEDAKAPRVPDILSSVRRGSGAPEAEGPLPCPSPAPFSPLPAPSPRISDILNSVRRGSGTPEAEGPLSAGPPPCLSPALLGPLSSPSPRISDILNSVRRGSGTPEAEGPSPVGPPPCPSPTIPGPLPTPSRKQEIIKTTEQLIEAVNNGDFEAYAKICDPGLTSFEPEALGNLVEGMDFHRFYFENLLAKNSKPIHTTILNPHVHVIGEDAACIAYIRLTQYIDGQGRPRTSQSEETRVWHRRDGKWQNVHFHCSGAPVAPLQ
Sequence of Transient receptor potential cation channel subfamily M member 6 (Homo sapiens) (Q9BX84 whole entry): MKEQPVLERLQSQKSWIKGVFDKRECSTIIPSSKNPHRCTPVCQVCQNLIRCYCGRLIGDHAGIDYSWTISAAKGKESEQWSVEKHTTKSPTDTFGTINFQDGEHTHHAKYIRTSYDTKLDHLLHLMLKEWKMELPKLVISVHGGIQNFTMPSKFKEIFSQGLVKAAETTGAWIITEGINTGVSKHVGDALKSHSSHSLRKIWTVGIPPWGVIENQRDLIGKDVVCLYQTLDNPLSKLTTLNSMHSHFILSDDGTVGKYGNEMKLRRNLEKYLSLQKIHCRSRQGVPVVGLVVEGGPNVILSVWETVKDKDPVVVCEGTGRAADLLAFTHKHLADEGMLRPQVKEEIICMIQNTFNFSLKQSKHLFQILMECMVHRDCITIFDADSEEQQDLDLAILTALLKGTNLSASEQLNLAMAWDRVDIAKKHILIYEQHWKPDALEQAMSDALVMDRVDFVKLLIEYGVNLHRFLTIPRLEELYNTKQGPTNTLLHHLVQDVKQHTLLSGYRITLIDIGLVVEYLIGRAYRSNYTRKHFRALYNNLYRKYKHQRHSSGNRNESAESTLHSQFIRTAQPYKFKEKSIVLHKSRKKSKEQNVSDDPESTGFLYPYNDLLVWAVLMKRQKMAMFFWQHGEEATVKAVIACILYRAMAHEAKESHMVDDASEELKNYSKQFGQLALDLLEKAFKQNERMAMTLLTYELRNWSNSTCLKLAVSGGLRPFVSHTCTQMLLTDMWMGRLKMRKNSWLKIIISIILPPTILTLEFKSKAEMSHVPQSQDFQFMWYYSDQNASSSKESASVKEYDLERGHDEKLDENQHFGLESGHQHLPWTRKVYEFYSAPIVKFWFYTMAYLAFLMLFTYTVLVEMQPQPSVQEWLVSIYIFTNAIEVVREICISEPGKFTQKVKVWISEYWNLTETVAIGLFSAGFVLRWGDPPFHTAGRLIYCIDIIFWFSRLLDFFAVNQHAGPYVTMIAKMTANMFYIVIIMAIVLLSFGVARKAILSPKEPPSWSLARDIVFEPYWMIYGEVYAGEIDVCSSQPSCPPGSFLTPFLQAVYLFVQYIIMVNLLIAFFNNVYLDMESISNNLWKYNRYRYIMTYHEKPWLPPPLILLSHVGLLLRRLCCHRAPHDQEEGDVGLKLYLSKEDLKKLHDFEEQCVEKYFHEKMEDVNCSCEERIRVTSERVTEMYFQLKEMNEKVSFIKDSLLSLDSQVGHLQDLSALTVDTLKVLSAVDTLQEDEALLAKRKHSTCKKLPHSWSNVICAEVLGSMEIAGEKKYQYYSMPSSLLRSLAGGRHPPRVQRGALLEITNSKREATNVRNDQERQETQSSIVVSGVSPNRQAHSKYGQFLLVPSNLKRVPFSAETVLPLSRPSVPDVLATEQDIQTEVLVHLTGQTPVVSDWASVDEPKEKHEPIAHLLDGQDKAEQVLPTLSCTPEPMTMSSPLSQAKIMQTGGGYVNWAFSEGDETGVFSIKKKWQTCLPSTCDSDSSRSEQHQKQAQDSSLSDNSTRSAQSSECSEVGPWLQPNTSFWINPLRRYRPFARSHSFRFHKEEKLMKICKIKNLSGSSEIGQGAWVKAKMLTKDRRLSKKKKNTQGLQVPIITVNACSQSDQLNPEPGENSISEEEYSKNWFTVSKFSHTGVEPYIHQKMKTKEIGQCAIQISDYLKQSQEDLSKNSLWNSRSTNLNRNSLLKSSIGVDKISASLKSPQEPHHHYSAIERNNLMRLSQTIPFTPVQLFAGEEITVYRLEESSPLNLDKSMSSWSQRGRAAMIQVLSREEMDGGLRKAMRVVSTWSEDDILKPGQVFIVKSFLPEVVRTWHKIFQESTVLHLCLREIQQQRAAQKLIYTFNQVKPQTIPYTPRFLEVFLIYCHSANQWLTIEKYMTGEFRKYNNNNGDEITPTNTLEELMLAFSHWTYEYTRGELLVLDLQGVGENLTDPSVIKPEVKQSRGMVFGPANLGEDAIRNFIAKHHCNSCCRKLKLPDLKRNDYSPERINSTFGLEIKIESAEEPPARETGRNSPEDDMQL
Sequence of Hepatocyte growth factor receptor (P08581 whole entry): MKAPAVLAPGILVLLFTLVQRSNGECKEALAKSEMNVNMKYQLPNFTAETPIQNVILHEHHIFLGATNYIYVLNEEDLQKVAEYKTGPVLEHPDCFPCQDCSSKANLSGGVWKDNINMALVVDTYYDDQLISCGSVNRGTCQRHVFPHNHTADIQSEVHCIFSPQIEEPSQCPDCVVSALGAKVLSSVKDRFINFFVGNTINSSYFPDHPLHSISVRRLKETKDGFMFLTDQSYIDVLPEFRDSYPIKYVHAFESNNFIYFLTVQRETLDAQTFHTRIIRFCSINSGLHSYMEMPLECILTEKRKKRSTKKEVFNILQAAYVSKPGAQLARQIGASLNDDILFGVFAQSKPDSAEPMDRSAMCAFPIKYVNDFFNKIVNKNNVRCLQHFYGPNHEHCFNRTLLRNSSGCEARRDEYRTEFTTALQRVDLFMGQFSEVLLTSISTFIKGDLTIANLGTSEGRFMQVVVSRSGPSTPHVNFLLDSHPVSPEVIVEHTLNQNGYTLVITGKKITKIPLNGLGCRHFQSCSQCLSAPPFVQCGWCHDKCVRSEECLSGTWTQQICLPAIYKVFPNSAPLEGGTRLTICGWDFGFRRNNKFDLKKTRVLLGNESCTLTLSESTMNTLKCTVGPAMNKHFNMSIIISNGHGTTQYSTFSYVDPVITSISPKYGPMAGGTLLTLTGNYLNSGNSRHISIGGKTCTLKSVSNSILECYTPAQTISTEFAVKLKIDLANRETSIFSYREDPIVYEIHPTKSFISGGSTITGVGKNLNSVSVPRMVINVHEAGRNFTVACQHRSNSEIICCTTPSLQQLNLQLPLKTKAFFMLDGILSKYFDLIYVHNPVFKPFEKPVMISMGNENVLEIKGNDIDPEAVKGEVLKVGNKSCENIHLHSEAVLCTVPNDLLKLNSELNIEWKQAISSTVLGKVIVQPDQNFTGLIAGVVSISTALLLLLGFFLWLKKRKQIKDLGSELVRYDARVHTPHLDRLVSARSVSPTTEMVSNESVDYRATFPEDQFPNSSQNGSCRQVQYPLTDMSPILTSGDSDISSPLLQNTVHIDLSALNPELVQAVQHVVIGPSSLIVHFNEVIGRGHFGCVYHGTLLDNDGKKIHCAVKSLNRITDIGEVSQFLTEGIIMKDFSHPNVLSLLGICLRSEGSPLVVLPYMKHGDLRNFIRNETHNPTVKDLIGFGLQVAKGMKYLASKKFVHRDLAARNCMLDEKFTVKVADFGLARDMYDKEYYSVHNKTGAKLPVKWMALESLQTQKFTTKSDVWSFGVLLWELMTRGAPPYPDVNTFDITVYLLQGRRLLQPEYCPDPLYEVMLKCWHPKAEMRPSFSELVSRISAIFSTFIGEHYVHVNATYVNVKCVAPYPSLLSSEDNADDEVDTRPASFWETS

Turning to `CNC(=O)Nc1ccc(-c2nc(N3CC4CCC(C3)O4)c3cnn(C4CCC5(CC4)OCCO5)c3n2)cc1`, the % of control in test [1] is 100%.

On to `O=C(NOC[C@H](O)CO)c1ccc(F)c(F)c1Nc1ccc(I)cc1F`, for which the % of control in test [2] was 87%.

In turn, `COc1cc(N(C)c2ccnc3ccc(C(F)(F)F)cc23)cc(OC)c1OC` displayed a % binding in [3] of 100%.

`Nc1cnc(N2CCc3cc(S(=O)(=O)Nc4c(F)cc(Cl)cc4F)cc(N4CCCC4=O)c32)nc1` [TP-020n]: the % of control in test [4] turned out to be 100%; in [5], 91%; in test [6] it was 69%; in test [7] it was 100%; in test [8], 69%; in test [9] it was 98%.

With `CCN(CC)CCCCNc1ncc2cc(-c3cc(OC)cc(OC)c3)c(NC(=O)NC(C)(C)C)nc2n1`, the % of control in test [10] came out at 100%.

Regarding `C=CC(=O)Nc1cc(-n2c(=O)ccc3cnc4ccc(-c5ccc(NS(C)(=O)=O)cc5)cc4c32)ccc1C`, the % of control in [11] (at 1 µM) came out at 84%; in test [11] (at 10 µM), 100%.

With `COCC(=O)NC/C=C/c1ccc2ncnc(Nc3ccc(Oc4ccc(C)nc4)c(C)c3)c2c1` [CP-724714], the % of control in [12] was 100%.
